Experimental data taken from ChEMBL document CHEMBL1147112 (2007).
≈ marks a conversion by molar mass, not a printed value. Calls of active or inactive are those of the source. No cut-off for these calls is given here.

Columns and labels:
Staphylococcus aureus [1] = test: Antimicrobial activity against methicillin-susceptible Staphylococcus aureus ATCC 29213 in human monocyte-derived macrophages at 2.5 ug/ml assessed as bacterial viability after 4 hrs; assay type: functional
Staphylococcus aureus [2] = test: Antimicrobial activity against methicillin-susceptible Staphylococcus aureus ATCC 29213 in human monocyte-derived macrophages at 2.5 ug/ml assessed as bacterial viability after 24 hrs; assay type: functional
Staphylococcus aureus [3] = test: Antimicrobial activity against methicillin-susceptible Staphylococcus aureus ATCC 29213 in human monocyte-derived macrophages at 5 ug/ml assessed as bacterial viability after 2 hrs; assay type: functional
Staphylococcus aureus [4] = test: Antimicrobial activity against methicillin-susceptible Staphylococcus aureus ATCC 29213 in human monocyte-derived macrophages at 5 ug/ml assessed as bacterial viability after 4 hrs; assay type: functional
Staphylococcus aureus [5] = test: Antimicrobial activity against methicillin-resistant Staphylococcus aureus ATCC 43300 in human monocyte-derived macrophages at 2.5 ug/ml assessed as bacterial viability after 2 hrs; assay type: functional
Staphylococcus aureus [6] = test: Antimicrobial activity against methicillin-resistant Staphylococcus aureus ATCC 43300 in human monocyte-derived macrophages at 2.5 ug/ml assessed as bacterial viability after 4 hrs; assay type: functional
Staphylococcus aureus [7] = test: Antimicrobial activity against methicillin-resistant Staphylococcus aureus ATCC 43300 in human monocyte-derived macrophages at 2.5 ug/ml assessed as bacterial viability after 24 hrs; assay type: functional
Staphylococcus aureus [8] = test: Antimicrobial activity against methicillin-resistant Staphylococcus aureus ATCC 43300 in human monocyte-derived macrophages at 5 ug/ml assessed as bacterial viability after 2 hrs; assay type: functional
Staphylococcus aureus [9] = test: Antimicrobial activity against methicillin-resistant Staphylococcus aureus ATCC 43300 in human monocyte-derived macrophages at 5 ug/ml assessed as bacterial viability after 4 hrs; assay type: functional
Staphylococcus aureus [10] = test: Antimicrobial activity against methicillin-resistant Staphylococcus aureus ATCC 43300 in human monocyte-derived macrophages at 5 ug/ml assessed as bacterial viability after 24 hrs; assay type: functional
Staphylococcus aureus [11] = test: Antimicrobial activity against methicillin-susceptible Staphylococcus aureus ATCC 29213 in human monocyte-derived macrophages at 0.25 ug/ml assessed as bacterial viability after 2 hrs; assay type: functional
Staphylococcus aureus [12] = test: Antimicrobial activity against methicillin-susceptible Staphylococcus aureus ATCC 29213 in human monocyte-derived macrophages at 0.25 ug/ml assessed as bacterial viability after 4 hrs; assay type: functional
Staphylococcus aureus [13] = test: Antimicrobial activity against methicillin-susceptible Staphylococcus aureus ATCC 29213 in human monocyte-derived macrophages at 0.25 ug/ml assessed as bacterial viability after 24 hrs; assay type: functional
Staphylococcus aureus [14] = test: Antimicrobial activity against methicillin-susceptible Staphylococcus aureus ATCC 29213 in human monocyte-derived macrophages at 0.5 ug/ml assessed as bacterial viability after 2 hrs; assay type: functional
Staphylococcus aureus [15] = test: Antimicrobial activity against methicillin-susceptible Staphylococcus aureus ATCC 29213 in human monocyte-derived macrophages at 0.5 ug/ml assessed as bacterial viability after 4 hrs; assay type: functional
Staphylococcus aureus [16] = test: Antimicrobial activity against methicillin-susceptible Staphylococcus aureus ATCC 29213 in human monocyte-derived macrophages at 0.5 ug/ml assessed as bacterial viability after 24 hrs; assay type: functional
Staphylococcus aureus [17] = test: Antimicrobial activity against methicillin-resistant Staphylococcus aureus ATCC 43300; assay type: functional
Staphylococcus aureus [18] = test: Antimicrobial activity against methicillin-susceptible Staphylococcus aureus ATCC 29213; assay type: functional
Staphylococcus aureus [19] = test: Antimicrobial activity against methicillin-resistant Staphylococcus aureus 8111; assay type: functional
Staphylococcus aureus [20] = test: Antimicrobial activity against methicillin-resistant Staphylococcus aureus ATCC 43300 in human monocyte-derived macrophages at 0.25 ug/ml assessed as bacterial viability after 2 hrs; assay type: functional
Staphylococcus aureus [21] = test: Antimicrobial activity against methicillin-resistant Staphylococcus aureus ATCC 43300 in human monocyte-derived macrophages at 0.25 ug/ml assessed as bacterial viability after 24 hrs; assay type: functional
Staphylococcus aureus [22] = test: Antimicrobial activity against methicillin-resistant Staphylococcus aureus ATCC 43300 in human monocyte-derived macrophages at 0.5 ug/ml assessed as bacterial viability after 2 hrs; assay type: functional
Staphylococcus aureus [23] = test: Antimicrobial activity against methicillin-resistant Staphylococcus aureus ATCC 43300 in human monocyte-derived macrophages at 0.5 ug/ml assessed as bacterial viability after 4 hrs; assay type: functional
Staphylococcus aureus [24] = test: Antimicrobial activity against methicillin-resistant Staphylococcus aureus ATCC 43300 in human monocyte-derived macrophages at 0.5 ug/ml assessed as bacterial viability after 24 hrs; assay type: functional
Staphylococcus aureus [25] = test: Antimicrobial activity against methicillin-susceptible Staphylococcus aureus ATCC 29213 in human monocyte-derived macrophages at 5 ug/ml assessed as bacterial viability after 24 hrs; assay type: functional
Staphylococcus aureus [26] = test: Antimicrobial activity against methicillin-susceptible Staphylococcus aureus ATCC 29213 in human monocyte-derived macrophages at 2.5 ug/ml assessed as bacterial viability after 2 hrs; assay type: functional
Staphylococcus aureus [27] = test: Antimicrobial activity against methicillin-resistant Staphylococcus aureus ATCC 43300 in human monocyte-derived macrophages at 0.25 ug/ml assessed as bacterial viability after 4 hrs; assay type: functional
Staphylococcus aureus [28] = test: Extracellular killing of Staphylococcus aureus 8111 in MH-2 broth at 0.5 ug/ml assessed as suppression of number of viable bacteria after 24 hrs; assay type: functional, organism-based

Compound	log10CFU/ml (Staphylococcus aureus [1])	log10CFU/ml (Staphylococcus aureus [2])	log10CFU/ml (Staphylococcus aureus [3])	log10CFU/ml (Staphylococcus aureus [4])	log10CFU/ml (Staphylococcus aureus [5])	log10CFU/ml (Staphylococcus aureus [6])	log10CFU/ml (Staphylococcus aureus [7])	log10CFU/ml (Staphylococcus aureus [8])	log10CFU/ml (Staphylococcus aureus [9])	log10CFU/ml (Staphylococcus aureus [10])	log10CFU/ml (Staphylococcus aureus [11])	log10CFU/ml (Staphylococcus aureus [12])	log10CFU/ml (Staphylococcus aureus [13])	log10CFU/ml (Staphylococcus aureus [14])	log10CFU/ml (Staphylococcus aureus [15])	log10CFU/ml (Staphylococcus aureus [16])	MIC (Staphylococcus aureus [17])	MIC (Staphylococcus aureus [18])	MIC (Staphylococcus aureus [19])	log10CFU/ml (Staphylococcus aureus [20])	further results
Cc1onc(-c2ccccc2)c1C(=O)N[C@@H]1C(=O)N2[C@@H]1SC(C)(C)[C@@H]2C(=O)O [OXACILLIN]	-2.05	-2.7	-0.91	-1.72	-0.94	-1.32	-2.7	-1.27	-1.75	-3	0.21	-0.05	-1.47	-0.48	-1.51	-1.54	16 µg/mL (≈ 39.9 µM)	0.5 µg/mL (≈ 1.25 µM)	64 µg/mL (≈ 159 µM)	-0.85	log10CFU/ml (Staphylococcus aureus [21]): -1.02; log10CFU/ml (Staphylococcus aureus [22]): -0.85; log10CFU/ml (Staphylococcus aureus [23]): -1.35; log10CFU/ml (Staphylococcus aureus [24]): -2.52; log10CFU/ml (Staphylococcus aureus [25]): -2.7
CO[C@H]1/C=C/O[C@@]2(C)Oc3c(C)c(O)c4c(O)c(c(/C=N/N5CCN(C)CC5)c(O)c4c3C2=O)NC(=O)/C(C)=C\C=C\[C@H](C)[C@H](O)[C@@H](C)[C@@H](O)[C@@H](C)[C@H](OC(C)=O)[C@@H]1C [RIFAMPIN]																	0.015 µg/mL (≈ 0.0182 µM)	0.015 µg/mL (≈ 0.0182 µM)	0.015 µg/mL (≈ 0.0182 µM)		
CCCCCCCCCC(=O)N[C@@H](Cc1c[nH]c2ccccc12)C(=O)N[C@H](CC(N)=O)C(=O)N[C@@H](CC(=O)O)C(=O)N[C@@H]1C(=O)NCC(=O)N[C@@H](CCCN)C(=O)N[C@@H](CC(=O)O)C(=O)N[C@H](C)C(=O)N[C@@H](CC(=O)O)C(=O)NCC(=O)N[C@H](CO)C(=O)N[C@@H]([C@H](C)CC(=O)O)C(=O)N[C@@H](CC(=O)c2ccccc2N)C(=O)O[C@@H]1C	-1.75	-0.32	-2	-2.05	-1.35	-1.48	-0.83	-1.52	-1.8	-1.06	0.57	1.84	2.02	-0.59	0.76	2	0.5 µg/mL (≈ 0.309 µM)	0.5 µg/mL (≈ 0.309 µM)	0.5 µg/mL (≈ 0.309 µM)	0.14	log10CFU/ml (Staphylococcus aureus [26]): -1.7; log10CFU/ml (Staphylococcus aureus [27]): 1.27; log10CFU/ml (Staphylococcus aureus [21]): 2.1; log10CFU/ml (Staphylococcus aureus [23]): 0; log10CFU/ml (Staphylococcus aureus [24]): 1.93; log10CFU/ml (Staphylococcus aureus [25]): -0.52; Activity (Staphylococcus aureus [28]): Active
CN[C@H](CC(C)C)C(=O)N[C@H]1C(=O)N[C@@H](CC(N)=O)C(=O)N[C@H]2C(=O)N[C@H]3C(=O)N[C@H](C(=O)N[C@H](C(=O)O)c4cc(O)cc(O)c4-c4cc3ccc4O)[C@H](O)c3ccc(c(Cl)c3)Oc3cc2cc(c3O[C@@H]2O[C@H](CO)[C@@H](O)[C@H](O)[C@H]2O[C@H]2C[C@](C)(N)[C@H](O)[C@H](C)O2)Oc2ccc(cc2Cl)[C@H]1O [VANCOMYCIN]	-1.07	-0.46	-0.85	-1.14	-0.38	-0.88	-1.6	-0.51	-0.84	-1.62	0.98	2.14	2.17	0.51	1.85	2.17				0.6	log10CFU/ml (Staphylococcus aureus [26]): -0.86; log10CFU/ml (Staphylococcus aureus [27]): 1.58; log10CFU/ml (Staphylococcus aureus [21]): 2.47; log10CFU/ml (Staphylococcus aureus [22]): -0.39; log10CFU/ml (Staphylococcus aureus [23]): 0.03; log10CFU/ml (Staphylococcus aureus [24]): 2.23; log10CFU/ml (Staphylococcus aureus [25]): -0.85
GENTAMICIN																	128 µg/mL	1 µg/mL	2 µg/mL		
